Experiment [1] in a line: C. albicans growth with fluconazole, confirmation, fluorescence, retest (AID 2467). The experiment is classed as functional, cell-based.
Experiment [2] addresses T1, Sentrin-specific protease 7 (Homo sapiens, UniProt Q9BQF6).
T1 sequence (Q9BQF6 whole entry): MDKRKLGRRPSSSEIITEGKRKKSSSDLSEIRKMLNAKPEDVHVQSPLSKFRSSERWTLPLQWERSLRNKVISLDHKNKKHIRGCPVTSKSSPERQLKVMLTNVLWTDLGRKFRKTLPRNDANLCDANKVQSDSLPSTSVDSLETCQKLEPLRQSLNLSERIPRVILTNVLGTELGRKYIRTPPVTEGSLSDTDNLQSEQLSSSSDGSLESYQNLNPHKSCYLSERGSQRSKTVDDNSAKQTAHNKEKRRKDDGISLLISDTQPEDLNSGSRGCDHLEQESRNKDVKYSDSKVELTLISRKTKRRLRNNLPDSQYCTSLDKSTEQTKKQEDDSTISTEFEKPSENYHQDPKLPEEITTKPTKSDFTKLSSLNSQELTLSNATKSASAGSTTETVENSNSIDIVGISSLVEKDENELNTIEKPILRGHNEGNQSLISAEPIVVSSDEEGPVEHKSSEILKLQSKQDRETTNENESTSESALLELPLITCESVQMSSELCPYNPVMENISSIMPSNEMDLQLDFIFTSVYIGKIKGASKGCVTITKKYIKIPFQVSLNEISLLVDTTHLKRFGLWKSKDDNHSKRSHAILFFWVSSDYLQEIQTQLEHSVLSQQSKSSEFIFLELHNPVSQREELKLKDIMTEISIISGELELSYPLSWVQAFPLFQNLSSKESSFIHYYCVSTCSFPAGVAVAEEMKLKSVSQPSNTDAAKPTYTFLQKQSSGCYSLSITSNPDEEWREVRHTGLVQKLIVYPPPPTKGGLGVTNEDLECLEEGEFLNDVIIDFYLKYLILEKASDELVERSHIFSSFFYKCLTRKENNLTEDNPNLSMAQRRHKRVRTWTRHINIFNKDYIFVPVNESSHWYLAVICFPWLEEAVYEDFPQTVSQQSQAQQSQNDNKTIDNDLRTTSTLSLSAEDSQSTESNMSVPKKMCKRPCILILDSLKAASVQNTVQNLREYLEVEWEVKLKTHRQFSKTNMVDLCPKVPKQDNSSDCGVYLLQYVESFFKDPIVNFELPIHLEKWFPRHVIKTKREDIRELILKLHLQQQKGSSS
Format: functional.

Molecules are shown by their SMILES. The source made the active and inactive calls.
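For IC50 in this document: Luminescence-based dose-response confirmation of ultra-high-throughput screening hits, measuring inhibition of SENP7.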

Usually EC50 stands for the midpoint of the concentration-response curve. As to `CCCCC(=O)NC(c1ccc(N(CC)CC)cc1)c1ccc2cccnc2c1O` (configuration not stated), the EC50 in experiment [1] was 405 nM (active).

In general, IC50 refers to the concentration at which inhibition is half-maximal. As for `CCOc1cccc(/C=N/NC(=S)Nc2ccccc2[N+](=O)[O-])c1O`, the IC50 in experiment [2] was 2650 nM (active).

These data come from ChEMBL document CHEMBL1201862, “PubChem BioAssay data set” (2004).
